The numbers were not newly measured in patent publication US20080227642A1, “Salts, aqueous liquid compositions containing salts of abscisic acid analogs and methods of their preparation” (priority 2007, published 2008), which cites them from elsewhere.

SMILES strings stand for the structures.

For the data set the following is noted: room temperature.

Regarding `CC1=CC(=O)CC(C)(C)[C@@]1(O)/C=C/C(C)=C\C(=O)O` [(S)-(+)-abscisic acid, 2-cis-,4-trans-(S)-(+)-abscisic acid], the “highest concentration that can be achieved in pure water” value is given as “about 3000 ppm”.
